{
  "source": "patent US8357659B2",
  "about": "“Method of treating pain or itching with APETx2 peptide toxin” (priority 2008, dated 2013)",
  "key": {"heteromer ASIC1a+3": {"biological_target": "T1, heteromer ASIC1a+3 (Rattus norvegicus, UniProt O35240+P55926)", "T1 sequence (P55926 1-526)": "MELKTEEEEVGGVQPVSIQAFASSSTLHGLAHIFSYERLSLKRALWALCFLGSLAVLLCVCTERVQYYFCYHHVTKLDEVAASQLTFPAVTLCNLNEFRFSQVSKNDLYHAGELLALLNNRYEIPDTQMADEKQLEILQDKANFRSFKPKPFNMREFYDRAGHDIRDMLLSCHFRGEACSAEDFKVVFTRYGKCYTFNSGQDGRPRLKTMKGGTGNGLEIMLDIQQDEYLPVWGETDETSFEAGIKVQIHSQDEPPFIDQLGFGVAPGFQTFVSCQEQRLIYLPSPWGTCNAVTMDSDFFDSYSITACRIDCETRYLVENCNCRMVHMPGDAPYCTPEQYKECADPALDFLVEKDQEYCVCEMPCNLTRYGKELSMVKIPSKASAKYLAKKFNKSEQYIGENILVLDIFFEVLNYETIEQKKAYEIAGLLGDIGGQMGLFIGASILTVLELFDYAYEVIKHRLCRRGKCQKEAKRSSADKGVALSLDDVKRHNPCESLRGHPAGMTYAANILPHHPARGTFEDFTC", "T1 sequence (O35240 1-533)": "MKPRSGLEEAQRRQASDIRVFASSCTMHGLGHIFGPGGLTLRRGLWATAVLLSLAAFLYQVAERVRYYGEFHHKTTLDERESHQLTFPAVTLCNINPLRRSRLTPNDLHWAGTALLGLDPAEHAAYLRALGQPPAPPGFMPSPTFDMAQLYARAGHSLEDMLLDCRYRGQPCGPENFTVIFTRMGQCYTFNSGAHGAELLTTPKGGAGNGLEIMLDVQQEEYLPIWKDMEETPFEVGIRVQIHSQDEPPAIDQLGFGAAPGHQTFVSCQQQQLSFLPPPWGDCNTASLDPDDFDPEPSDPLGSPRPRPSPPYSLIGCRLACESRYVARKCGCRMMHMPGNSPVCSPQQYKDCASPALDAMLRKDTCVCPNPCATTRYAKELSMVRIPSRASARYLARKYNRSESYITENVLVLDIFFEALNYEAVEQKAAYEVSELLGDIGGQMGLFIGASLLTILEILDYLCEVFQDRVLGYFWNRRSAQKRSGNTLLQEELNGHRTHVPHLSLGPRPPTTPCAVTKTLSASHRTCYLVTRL", "conditions": "relative to ASIC3 / ASIC2b+3; cited from earlier work"}, "[1]": {"tested_on": "cutaneous pain induced by moderate acidification", "test": "Nociceptive behaviour in rats after subcutaneous injection of moderately acidic solutions", "type": "in vivo, rat", "conditions": "FIG. 5A", "procedure": "Adult (7-8 weeks' old) male Wistar rats (Charles River, France) were placed in plastic cages with a nyctohemeral period of 12 h (with light between 8 a.m. and 8 p.m.) and with free access to food and water. The rats were left to acclimatize for at least one week before the experiments. For the behavioural experiments, the rats were placed in a transparent observation chamber where they were acclimatized for 20-30 minutes. They were subsequently immobilised while 20 μl of saline solution (0.9% or 2% of NaCl+20 mM of HEPES, […] or 60 nM of PcTx1 toxin), was administered subcutaneously to the dorsal side of the right hind paw using a 30G needle connected to a 100 μl Hamilton syringe. The nociceptive behaviour (i.e. the number of hind leg quiverings) was recorded over a 5-minute period, starting immediately after the injection ([ref. 59])."}, "heteromer ASIC1b+3": {"biological_target": "T2, heteromer ASIC1b+3 (Rattus norvegicus, UniProt O35240+P55926)", "T2 sequence (P55926 1-559 isoform P55926-3)": "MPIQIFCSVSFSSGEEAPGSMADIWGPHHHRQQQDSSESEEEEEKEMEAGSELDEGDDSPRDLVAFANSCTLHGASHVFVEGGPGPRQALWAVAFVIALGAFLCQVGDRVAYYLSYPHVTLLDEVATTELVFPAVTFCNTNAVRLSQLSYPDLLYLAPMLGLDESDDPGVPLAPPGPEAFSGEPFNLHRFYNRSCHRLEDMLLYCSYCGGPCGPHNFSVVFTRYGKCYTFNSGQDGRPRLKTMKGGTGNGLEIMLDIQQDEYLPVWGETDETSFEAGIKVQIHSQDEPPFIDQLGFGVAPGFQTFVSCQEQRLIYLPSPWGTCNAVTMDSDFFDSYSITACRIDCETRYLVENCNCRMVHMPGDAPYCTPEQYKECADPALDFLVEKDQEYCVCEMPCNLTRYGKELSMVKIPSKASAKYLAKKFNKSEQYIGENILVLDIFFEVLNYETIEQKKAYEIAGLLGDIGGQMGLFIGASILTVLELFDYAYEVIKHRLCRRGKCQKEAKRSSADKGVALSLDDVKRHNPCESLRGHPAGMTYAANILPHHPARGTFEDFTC", "T2 sequence (O35240 1-533)": "T1 sequence (O35240 1-533)", "conditions": "relative to ASIC3 / ASIC2b+3; cited from earlier work"}, "[2]": {"tested_on": "thermal hyperalgesia induced by CFA", "test": "Inflammation-induced (CFA) thermal hyperalgesia in rats, hotplate at 50° C.", "type": "in vivo, rat", "procedure": "Sensitivity to heat of adult male Wistar rats (Charles River, France) was tested by measuring the time taken by the animal to retract one of its hind paws when placed on a hotplate at 50° C. (Bioseb, France), before and after induction of inflammation by subcutaneous injection of a solution of Freund's complete adjuvant (CFA, Sigma-Aldrich, France). The rats were acclimatised to the experimentation room for at least 30 minutes and each measurement was performed in duplicate. An initial measurement was performed before induction of inflammation. The rats were subsequently anaesthetised (isofluorane) while 150 μl of CFA diluted 1:1 with a saline solution (0.9% NaCl) containing either toxins (PcTx1 or APETx2, 120 nM and 20 μM, respectively) or the vehicle was injected (26G needle mounted on a 1 ml syringe) subcutaneously into the plantar side of one of the hind paws. The time taken by the animal to lift the injected hind paw was subsequently measured at 50° C., 2, 4 and 24 hours after the injection of CFA.\nASIC3 channel-specific iRNA (no. 1121; CTACACGCTATGCCAAGGA, SEQ ID NO: 1) and its control (no. 1121S; GCTCACACTACGCAGAGAT, SEQ ID NO: 2) were designed in the laboratory and were synthesised by MWG Biotech Company (Germany). The ASIC3-specific iRNA was validated by quantification of the messenger RNA levels by quantitative RT-PCR for each ASIC channel and for the TRPV1 channel, following intrathecal injections into the lumbar region of the spinal cord of rats, at a rate of one injection per day for 3 consecutive days, before the animal was sacrificed. The same procedure was followed before induction of inflammation by CFA. Each injection was 10 μl in volume, containing 2 μg of iRNA mixed with the transfection agent i-Fect (Neuromics) at a ratio of 1 to 4."}},
  "data": [
    {"substance": "peptide of 42 amino acids (SEQ ID NO: 3), three disulphide bonds, from sea anemone Anthopleura elegantissima; blocks ASIC3 [APETx2]", "values": [
      {"measurement": "affinity for the heteromer ASIC1a+3", "setting": "heteromer ASIC1a+3", "value": "less affinity"},
      {"measurement": "behaviour in response to acid pain with inflammatory signals", "setting": "[1]; pH 6.9 + 2% NaCl + AA, 10 μM APETx2 or 60 nM PcTx1 in injected solution", "value": "markedly reduced"},
      {"measurement": "pain behaviour after subcutaneous injection of acidic solution", "setting": "[1]; pH 6.9, 10 μM APETx2 in injected solution", "value": "suppressed"},
      {"measurement": "affinity for the heteromer ASIC1b+3", "setting": "heteromer ASIC1b+3", "value": "less affinity"},
      {"measurement": "development of thermal hyperalgesia", "setting": "[2]; toxin concomitantly injected with CFA (APETx2 20 μM, PcTx1 120 nM), four hours after CFA", "value": "does not develop"},
      {"measurement": "thermal hyperalgesia behaviour versus vehicle control animals", "setting": "[2]; twenty hours after the injection of CFA, data not represented", "value": "do not display any behaviour different"}
    ]}
  ]
}
